From the NIST ThermoML archive (doi:10.1016/j.jct.2013.08.004)
Numbers after ± are expanded uncertainties.

Test: molar enthalpy of vaporization or sublimation
Details: 298.15 K; Liquid; Static calorimetry

- molar enthalpy: 14.1 ± 0.287 kcal/mol
SMILES: COC(=O)c1cccn1C [methyl 1-methyl-2-pyrrolecarboxylate]
